Measurements taken from PMC10892142, “Synthesis and In Vitro Antitumor Activity Evaluation of Gefitinib-1,2,3-Triazole Derivatives” (Molecules, 2024).

Key:
IDO1 = settings: read-out: IDO1 inhibitory activity IC50; cited from earlier work
NCI-H1437 cells = test: CCK-8 assay, NCI-H1437 cells; assay type: cell-based; settings: CCK-8, 48 h, mean ± SD, n = 3
Protocol: (§1) Next, cell viability was determined according to the instructions of the CCK-8 assay. Then, 10 μL CCK-8 solution was added to each well of the plate and incubated for 1–4 h in the incubator. […] The percentage of viable cells was measured using the following formula where three independent experiments were performed: [(A450sample − A450blank)/(A450control − A450blank)] × 100%.

A549 cells = test: CCK-8 assay, A549 cells; assay type: cell-based; settings: CCK-8, 48 h, mean ± SD, n = 3
Protocol: as §1

NCI-H1299 cells = test: CCK-8 assay, NCI-H1299 cells; assay type: cell-based, human; settings: CCK-8, 48 h, mean ± SD, n = 3
Protocol: as §1

For `COCCOc1cc2ncnc(Nc3cccc(-c4cn(Cc5ccccc5Br)nn4)c3)c2cc1OCCOC` [compound e], the IC50 (IDO1) is given as 0.32 ± 0.07 µM.

Molecule `COc1cc2ncnc(Nc3cccc(-c4cn(Cc5cc(Br)cc(Br)c5)nn4)c3)c2cc1OCCCN1CCOCC1` [Compound 4m, N-(3-(1-(3,5-Dibromobenzyl)-1H-1,2,3-triazol-4-yl)phenyl)-7-methoxy-6-(3-morpholinopropoxy)quinazolin-4-amine] has an IC50 (NCI-H1437 cells; Homo sapiens, NCI-H1437) of 2.53 ± 0.11 µM, an IC50 (A549 cells; Homo sapiens, A549) of 2.39 ± 0.3 µM and an IC50 (NCI-H1299 cells; Homo sapiens, NCI-H1299) of 4.79 ± 0.13 µM.

In the case of `Oc1ccc(Cl)cc1-c1cnn[nH]1` [MMG-0358], the IC50 (IDO1) is listed as 0.082 µM.

For `Clc1ccc(Nc2cnn[nH]2)cc1` [Vertex-AT], the IC50 (IDO1) is given as 0.023 µM.

`COc1cc2ncnc(Nc3cccc(-c4cn(-c5ccc(Cl)cc5)nn4)c3)c2cc1OCCCN1CCOCC1` [Compound 4d, N-(3-(1-(4-Chlorophenyl)-1H-1,2,3-triazol-4-yl)phenyl)-7-methoxy-6-(3-morpholinopropoxy)quinazolin-4-amine] gave an IC50 (NCI-H1437 cells; Homo sapiens, NCI-H1437) of 6.41 ± 0.54 µM, a melting point of 162 to 163 °C and an IC50 (A549 cells; Homo sapiens, A549) of 9.04 ± 0.41 µM. It also gave an IC50 (NCI-H1299 cells; Homo sapiens, NCI-H1299) of 11.4 ± 0.97 µM.

`COc1cc2ncnc(Nc3cccc(-c4cn(Cc5ccc(F)c(Cl)c5)nn4)c3)c2cc1OCCCN1CCOCC1` [Compound 4a, N-(3-(1-(3-Chloro-4-fluorobenzyl)-1H-1,2,3-triazol-4-yl)phenyl)-7-methoxy-6-(3-morpholinopropoxy)quinazolin-4-amine] gave an IC50 (NCI-H1437 cells; Homo sapiens, NCI-H1437) of 2.05 ± 0.03 µM, a melting point of 192 to 193 °C and an IC50 (A549 cells; Homo sapiens, A549) of 6.81 ± 0.33 µM. It also gave an IC50 (NCI-H1299 cells; Homo sapiens, NCI-H1299) of 7.59 ± 0.19 µM.

With `COc1cc2ncnc(Nc3cccc(-c4cn(-c5ccc([N+](=O)[O-])c(C)c5)nn4)c3)c2cc1OCCCN1CCOCC1` [Compound 4f, 7-Methoxy-N-(3-(1-(3-methyl-4-nitrophenyl)-1H-1,2,3-triazol-4-yl)phenyl)-6-(3-morpholinopropoxy)quinazolin-4-amine] the IC50 (NCI-H1437 cells; Homo sapiens, NCI-H1437) was 9.27 ± 0.4 µM, the melting point was 175 to 176 °C and the IC50 (A549 cells; Homo sapiens, A549) was 13.7 ± 0.71 µM. The IC50 (NCI-H1299 cells; Homo sapiens, NCI-H1299) was 13.3 ± 0.52 µM.

`COc1cc2ncnc(Nc3cccc(-c4cn(Cc5ccccc5C#N)nn4)c3)c2cc1OCCCN1CCOCC1` [Compound 4l, 2-((4-(3-((7-Methoxy-6-(3-morpholinopropoxy)quinazolin-4-yl)amino)phenyl)-1H-1,2,3-triazol-1-yl)methyl)benzonitrile] showed an IC50 (NCI-H1437 cells; Homo sapiens, NCI-H1437) of 2.23 ± 0.26 µM, a melting point of 167 to 168 °C and an IC50 (A549 cells; Homo sapiens, A549) of 7.53 ± 0.66 µM. It also gave an IC50 (NCI-H1299 cells; Homo sapiens, NCI-H1299) of 5.43 ± 0.24 µM.

Work on `COc1cc2ncnc(Nc3cccc(-c4cn(Cc5ccc(C)cc5)nn4)c3)c2cc1OCCCN1CCOCC1` [Compound 4n, 7-methoxy-N-(3-(1-(4-methylbenzyl)-1H-1,2,3-triazol-4-yl)phenyl)-6-(3-morpholinopropoxy)quinazolin-4-amine] yielded an IC50 (NCI-H1437 cells; Homo sapiens, NCI-H1437) of 5.79 ± 0.88 µM, a melting point of 168 to 169 °C and an IC50 (A549 cells; Homo sapiens, A549) of 10.4 ± 0.82 µM. The IC50 (NCI-H1299 cells; Homo sapiens, NCI-H1299) was 5.91 ± 0.44 µM.

“7-Methoxy-N-(3-(1-(2-methyl-3-nitrophenyl)-1H-1,2,3-triazol-4-yl)phenyl)-6-(3-morpholinopropoxy)quinazolin-4-amine [Compound 4g]” gave an IC50 (NCI-H1437 cells) of 2.15 ± 0.1 µM, an IC50 (A549 cells) of 4.65 ± 0.08 µM and an IC50 (NCI-H1299 cells) of 6.02 ± 0.12 µM.

`COc1cc2ncnc(Nc3cccc(-c4cn(-c5ccccc5Cl)nn4)c3)c2cc1OCCCN1CCOCC1` [Compound 4h, N-(3-(1-(2-Chlorophenyl)-1H-1,2,3-triazol-4-yl)phenyl)-7-methoxy-6-(3-morpholinopropoxy)quinazolin-4-amine] showed an IC50 (NCI-H1437 cells; Homo sapiens, NCI-H1437) of 3.09 ± 0.13 µM, a melting point of 167 to 168 °C and an IC50 (A549 cells; Homo sapiens, A549) of 9.81 ± 0.34 µM. It also gave an IC50 (NCI-H1299 cells; Homo sapiens, NCI-H1299) of 7.69 ± 0.11 µM.

With `COc1cc2ncnc(Nc3cccc(-c4cn(-c5ccccc5Br)nn4)c3)c2cc1OCCCN1CCOCC1` [Compound 4e, N-(3-(1-(2-Bromophenyl)-1H-1,2,3-triazol-4-yl)phenyl)-7-methoxy-6-(3-morpholinopropoxy)quinazolin-4-amine] the IC50 (NCI-H1437 cells; Homo sapiens, NCI-H1437) was 11.2 ± 0.95 µM, the melting point was 175 to 176 °C and the IC50 (A549 cells; Homo sapiens, A549) was 8.62 ± 0.76 µM. For the same molecule, the IC50 (NCI-H1299 cells; Homo sapiens, NCI-H1299) was 11.9 ± 0.32 µM.

`COc1cc2ncnc(Nc3cccc(-c4cn(-c5cccc(F)c5)nn4)c3)c2cc1OCCCN1CCOCC1` [Compound 4i, N-(3-(1-(3-Fluorophenyl)-1H-1,2,3-triazol-4-yl)phenyl)-7-methoxy-6-(3-morpholinopropoxy)quinazolin-4-amine] showed an IC50 (NCI-H1437 cells; Homo sapiens, NCI-H1437) of 4.77 ± 0.32 µM, an IC50 (A549 cells; Homo sapiens, A549) of 13 ± 0.29 µM and an IC50 (NCI-H1299 cells; Homo sapiens, NCI-H1299) of 9.35 ± 0.31 µM.

`COc1cc2ncnc(Nc3cccc(-c4cn(Cc5ccc(Br)cc5)nn4)c3)c2cc1OCCCN1CCOCC1` [Compound 4k, N-(3-(1-(4-Bromobenzyl)-1H-1,2,3-triazol-4-yl)phenyl)-7-methoxy-6-(3-morpholinopropoxy)quinazolin-4-amine] showed an IC50 (NCI-H1437 cells; Homo sapiens, NCI-H1437) of 5.95 ± 0.72 µM, a melting point of 177 to 178 °C and an IC50 (A549 cells; Homo sapiens, A549) of 8.95 ± 0.99 µM. It also gave an IC50 (NCI-H1299 cells; Homo sapiens, NCI-H1299) of 7.15 ± 0.12 µM.

Work on `COc1cc2ncnc(Nc3cccc(-c4cn(-c5cccc6c5C(=O)N(C5CCC(=O)NC5=O)C6=O)nn4)c3)c2cc1OCCCN1CCOCC1` (stereo not drawn) [Compound 4j, 2-(2,6-Dioxopiperidin-3-yl)-4-(4-(3-((7-methoxy-6-(3-morpholinopropoxy)quinazolin-4-yl)amino)phenyl)-1H-1,2,3-triazol-1-yl)isoindoline-1,3-dione] yielded an IC50 (NCI-H1437 cells; Homo sapiens, NCI-H1437) of 6.6 ± 0.07 µM, a melting point of 187 to 188 °C and an IC50 (A549 cells; Homo sapiens, A549) of 11.4 ± 0.89 µM. For the same molecule, the IC50 (NCI-H1299 cells; Homo sapiens, NCI-H1299) was 12 ± 0.33 µM.
